Test results taken from patent publication US20240124539A1, “CROSSLINKED HELIX DIMER MIMICS OF SOS AND METHODS OF USING SAME” (NEW YORK UNIVERSITY, priority 2020, published 2024).
Where two headings read alike, the source gives them in different places. Residues, ends and D or L forms follow the SMILES beside them.

Key:
[1] = system: ERK phosphorylation in HeLa cells; assay: ERK activation assay, HeLa; assay type: cell-based; conditions: HeLa cells (wild-type Ras), 1, 5, 10 μM, 6 hours
Method: (§1) H358 or HeLa cells were initially seeded in 6-well plates (1x10^6 cells/well) and allowed to attach overnight. The cells were then incubated with indicated peptides dissolved in complete medium at specified concentrations for 6 hours at 37° C. The cells were washed twice with ice-cold PBS and then lysed in cold RIPA buffer (200 μL/well) containing 25 mM Tris-HCl, pH 7.6, 150 mM NaCl, 1% NP-40, 1% sodium doexycholic acid, 0.1% SDS, Roche Complete Protease inhibitor cocktail (1X, Sigma-Aldrich, P2714), and Roche PhosSTOP phosphatase inhibitor cocktail tablets (1X, Sigma-Aldrich, 4906845001). The cells are kept on ice for 5 minutes with occasional swirling for uniform spreading. Cell lysates are generated with a cell scraper, transferred to a microcentrifuge tube, and centrifuged at 13,000 rpm for 10 minutes at 4° C. The clarified supernatant was collected, and the total protein concentration was measured by Pierce BCA protein assay. The lysates were subjected to SDS-PAGE (10 μg/lane loading) and Western Blot analysis via immunoblotting. Primary antibodies include Phospho-p44/42 MAPK (Erk1/2) (Thr202/Tyr204) (Cell Signaling 4370), p44/42 MAPK (Erk1/2) (Cell Signaling 4695), Ras (Abcam ab 108602), and a-tubulin (Cell Signaling 2144). Secondary antibodies include anti-rabbit IgG, HRP-linked antibody (Cell Signaling 7074P2, 1:2000). […]

[2] = system: Ras wild type and mutant cell lines; assay: MTT cell viability assay; assay type: cell-based; conditions: 72 hours, in presence of serum; oncogenic Ras mutant cell lines in comparison to wild-type Ras HeLa control
Method: Cell viability was monitored using the MTT (Sigma-Aldrich, M2128) or CellTiter-Glo Luminescent cell viability assay (Promega).
Cell viability was monitored using the MTT (Sigma-Aldrich, M2128) […] cell viability assay. Cells were plated in clear 96-well plates at 2000 cells/well and allowed to affix overnight at 37° C. Each well is gently aspirated and washed with serum-free medium before introducing peptide inhibitors dissolved in complete medium with 0.5% DMSO (v/v final) to desired concentrations (90 μL/well). The cells are incubated in the presence of peptide for 72 hours at 37° C. MTT reagent solution is composed of Thiazolyl Blue Tetrazolium Bromide dissolved in Dulbecco's Phosphate Buffered Saline (DPBS), pH 7.4 to a concentration of 5 mg/mL and subsequently sterile-filtered into a light-protected container. MTT reagent was added to each well (0.45 mg/mL/well final). The cells are incubated at 37° C. for an additional 4 hours. Upon careful removal of the supernatant, 150 μL DMSO (solubilization solution) is added to each well and mixed to ensure complete solubilization and release of the insoluble purple formazan precipitate into solution. Absorbance values are recorded with a Synergy HT Multi-Detection Microplate Reader (BioTek) at 570 nm.

T24 cells = assay: Flow cytometry cellular uptake, T24; assay type: cell-based; conditions: fluorescently labeled peptide 1 μM, 1 h
Method: (§2) All compounds are dissolved as concentrated stocks in DMSO.

wild-type H-Ras-GDP = biological target: T1, wild-type H-Ras-GDP (Homo sapiens, UniProt P01112); assay: Microscale thermophoresis (MST), wild-type H-Ras-GDP; assay type: binding
T1 construct: Wild-type and mutant N-terminal His6-H-Ras (residues 1-166) in pProEx HTb expression vector; His6 (N); made in house; host or cells: Escherichia coli (BL21)
T1 sequence (P01112 1-166): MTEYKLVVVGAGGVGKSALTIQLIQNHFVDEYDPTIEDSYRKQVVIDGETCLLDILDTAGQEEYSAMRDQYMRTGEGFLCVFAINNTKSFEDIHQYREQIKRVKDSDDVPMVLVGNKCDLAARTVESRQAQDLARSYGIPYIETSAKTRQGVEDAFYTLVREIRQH
Method: Fluorescent labeling of the H-Ras protein was performed using the Monolith Protein Labeling Kit RED-MALEIMIDE 2nd Generation from NanoTemper (MO-L014) or AFDye 647 maleimide fluoroprobes (1122-1). Briefly, 20 nM of H-Ras protein was labeled with 1.5 equivalents of cysteine reactive dye in the 1× PBS under dark for 90 minutes. Labeled Ras proteins were then purified via the kit provided column, and the Degree of Label (DOL) was calculated by using the dye's absorbance and protein's original absorbance. The observed DOL value after the labeling for wild-type H-Ras-GDP was 0.43 and G12V H-Ras-GDP was 0.98.
MST binding assays were conducted with NanoTemper Monolith NT.115 Pico. Assay conditions were optimized with a premium coated capillary tube from NanoTemper to avoid random adsorption. Measurement was performed at 25° C. using 10-15% laser excitation power for 20 seconds. The assay buffer was composed of 50 mM Tris, 100 mM NaCl, and 0.1% pluronic acid. 5-10 nM of the dye labeled protein was exposed to serial dilutions of indicated CHDs and incubated for 90 mins in room temperature before the measurements. Error bars are generated from triplicates. Binding affinities were obtained from the MO analysis software in NT.115 Pico with the following equation:
[formula] [formula] • where, Unbd=Response value of unbound state Bd=Response value of bound state TC=Final concentration of fluorescent molecule

[3] = system: ERK phosphorylation in H358 cells; assay: ERK activation assay, H358; assay type: cell-based; conditions: H358 cells, 1, 5, 10 μM, 6 hours
Method: as §1

H358 cells = assay: Flow cytometry cellular uptake, H358; assay type: cell-based; conditions: fluorescently labeled peptide 1 μM, 1 h
Method: as §2

[4] = biological target: T2, wild-type His6-tagged H-Ras (1-166) pre-loaded with GDP (Homo sapiens, UniProt P01112); assay: Fluorescence polarization binding assay, wild-type H-Ras-GDP
T2 construct: wild-type and mutant His6-tagged H-Ras (1-166) pre-loaded with GDP; made in house; host or cells: Escherichia coli (BL21)
T2 sequence (P01112 1-166): as above
Source text: GTP of the Ras-specific nucleotide exchange factor SOS. Cell 112, 685-695 (2003).

[5] = biological target: G12C mutant H-Ras pre-loaded with GDP (Homo sapiens, UniProt P01112, G12C)
Chain of G12C mutant H-Ras pre-loaded with GDP (P01112 1-166 G12C): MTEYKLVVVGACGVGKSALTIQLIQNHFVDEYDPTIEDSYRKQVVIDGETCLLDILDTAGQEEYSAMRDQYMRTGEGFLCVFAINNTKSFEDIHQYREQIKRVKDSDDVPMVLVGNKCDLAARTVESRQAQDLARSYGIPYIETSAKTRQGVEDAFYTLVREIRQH
Method: (§3) Wild-type and mutant N-terminal His6-H-Ras (residues 1-166) in pProEx HTb expression vector were expressed in Escherichia coli (BL21). Cells were grown at 37 ° C. to an absorbance of 0.7 at 600 nm. Protein expression was induced with 500 μM isopropyl β-D-1-thiogalactopyranoside (IPTG) for 6 hours at 30° C. or overnight at 18° C. The bacterial cells were pelleted via centrifugation at 4500 rpm for 15 minutes. Bacterial pellets were resuspended in a lysis buffer containing 20 mM Tris pH 7.4, 300 mM NaCl, 2 mM 2-mercaptoethanol, and a complete, EDTA-free protease inhibitor cocktail (Roche). The lysis, elution and dialysis buffers were also supplemented with 2.5 mM MgCl2. The resuspended pellets were sonicated using a Branson Cell Disrupter 200. Clarified lysates were formed upon centrifugation at 13,000 rpm for 20 minutes at 4° C. and incubated with charged Ni-NTA resin (Invitrogen) at 4° C. for 1 hour. The resin beads were washed five times with resuspension buffer containing 5 mM imidazole. The His6-tagged proteins were eluted via gravity flow with buffer containing 200 mM imidazole in buffer containing 20 mM Tris, 300 mM NaCl, pH 7.4. Eluted proteins were dialyzed twice against buffer containing 20 mM Tris, 300 mM NaCl, 2.5 mM MgCl2, pH 7.4 for H-Ras. For HSQC and photoaffinity labeling studies, the polyhistidine tag was cleaved using Tobacco Etch Virus (TEV) protease before proceeding to nucleotide loading.
(§4) The generated binding affinity (KD) values for each compound are from biological triplicate studies and were determined via fitting to a sigmoidal dose-response nonlinear regression model on Graphpad Prism 6.

[6] = biological target: G12D mutant H-Ras pre-loaded with GDP (Homo sapiens, UniProt P01112, G12D)
Chain of G12D mutant H-Ras pre-loaded with GDP (P01112 1-166 G12D): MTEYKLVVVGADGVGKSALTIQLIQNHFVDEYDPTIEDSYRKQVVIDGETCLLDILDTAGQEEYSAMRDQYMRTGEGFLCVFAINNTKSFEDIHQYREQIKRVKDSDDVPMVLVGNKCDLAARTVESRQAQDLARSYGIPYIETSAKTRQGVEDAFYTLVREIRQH
Method: as §3, §4

[7] = biological target: G12V mutant H-Ras pre-loaded with GDP (Homo sapiens, UniProt P01112, G12V)
Chain of G12V mutant H-Ras pre-loaded with GDP (P01112 1-166 G12V): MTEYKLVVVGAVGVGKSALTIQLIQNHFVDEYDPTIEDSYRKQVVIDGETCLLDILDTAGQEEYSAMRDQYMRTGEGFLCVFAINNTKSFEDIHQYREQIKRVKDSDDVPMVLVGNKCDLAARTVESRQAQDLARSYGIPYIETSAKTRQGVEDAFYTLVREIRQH
Method: as §3, §4

[8] = compared to CHD^Sos-2
in vitro = conditions: bovine, 25% fetal bovine serum
Method: A 45 μL mixture of 33% FBS (v/v) in serum-free medium was prepared for each sample. The addition of 15 μL of indicated peptide in serum-free medium (25% FBS final) per each experiment was recorded as the starting time point. Time points of 5 min, 6 hours, 12 hours, and 24 hours were analyzed in triplicate. Each experiment was quenched at the determined time point by adding 30 μL 100% EtOH, which was prepared at −70° C. After cooling on ice for 10 minutes, each sample was pelleted at 14,000× g for 5 minutes. 30 μL of the supernatant was isolated, and 3 μL of 500 μM L-Tryptophan was titrated into the sample to be used as an internal standard. The resulting mixture was then immediately subjected to RP-HPLC with a C18 3.5 μm 2.1×150 mm analytical column and monitored at 280 nm. Eluting peaks were collected, and the mass of each peak was determined using MALDI-TOF spectroscopy. Integrated peak area of non-degraded peptides was used to determine the percent surviving in each given condition.

SW780 cells = SW780 cells (oncogenic FGFR3 fusions), 1 μM, 1 h
Method: The indicated cell lines were seeded at 1×10^5 cells/well in clear polystyrene 24-well plates (Corning) and incubated overnight. The initial growth medium is replaced with serum-free medium and incubated for 2 hours at 37° C. Upon aspiration, the cells are incubated in serum-free medium containing 0.4% DMSO (v/v) for one hour. The cells were then treated with 1 μM (final) of fluorescein-conjugated peptides in serum-free medium for another hour while protected from light. All compounds are dissolved as concentrated stocks in DMSO. Each well was aspirated and treated with 1× trypsin (0.25% trypsin, 2.21 mM EDTA, Corning Cellgro) for 10 minutes at 37° C. After trypsinization, the resulting solution was mixed with cold serum-free medium and collected. The samples are centrifuged at 500 rpm for 5 minutes at 4 °C.
The supernatant was removed, and the cell pellets were resuspended with cold PBS before placed on ice. Each sample was treated with 10% trypan blue (v/v) immediately before analysis by flow cytometry on a Becton Dickinson Accuri flow cytometer. The presented data consists of the median fluorescence intensities for at least 10,000 cells/sample and processed using FlowJo (Tree Star Inc.).

CC[C@H](C)[C@H](NC(=O)[C@H](C)NC(C)=O)C(=O)NCC(=O)N[C@@H](CCCNC(=N)N)C(=O)N[C@@H](CC(C)C)C(=O)N[C@@H](CSCc1ccc(COCc2ccc(CSC[C@H](NC(=O)[C@H](CC(C)C)NC(=O)[C@H](CCCNC(=N)N)NC(=O)[C@H](C)NC(=O)[C@H](CC(C)C)NC(=O)[C@H](CCC(=O)O)NC(=O)[C@H](CCCNC(=N)N)NC(=O)[C@H](CCC(=O)O)NC(=O)[C@H](CC(C)C)NC(=O)[C@H](CCC(=O)O)NC(=O)[C@H](CCCNC(=N)N)NC(=O)[C@H](CC(C)C)NC(=O)[C@H](CCCNC(=N)N)NC(=O)[C@H](Cc3c[nH]c4ccccc34)NC(=O)[C@H](C)NC(=O)[C@H](CC(C)C)NC(C)=O)C(N)=O)cc2)cc1)C(=O)N[C@H](C(=O)N[C@@H](CCC(=O)O)C(=O)N[C@H](C(=O)N[C@@H](CC(C)C)C(=O)N[C@@H](CCCNC(=N)N)C(=O)N[C@@H](CC(C)C)C(=O)N[C@@H](CCCNC(=N)N)C(=O)N[C@@H](CC(N)=O)C(=O)NCC(=O)N[C@@H](C)C(N)=O)[C@@H](C)CC)[C@@H](C)O [CHC^Sos-3] (HELM PEPTIDE1{[ac].A.I.G.R.L.C.T.E.I.L.R.L.R.N.G.A.[am]}|PEPTIDE2{[ac].L.A.W.R.L.R.E.L.E.R.E.L.A.R.L.C.[am]}|CHEM1{[c1cc(C[*:1])ccc1COCc1ccc(C[*:2])cc1]}$PEPTIDE1,CHEM1,7:R3-1:R1|PEPTIDE2,CHEM1,17:R3-1:R2$$$V2.0)
effect on ERK phosphorylation [1]: did not suppress ERK phosphorylation | cell viability (MTT) [2]: little to no effect | cellular uptake, median fluorescence intensity (T24 cells): lower uptake than CHC^Sos-5 | concentration above which aggregation was observed (wild-type H-Ras-GDP; MST with wild-type H-Ras-GDP, interrupted binding isotherm): higher than 3 μM | Kd (wild-type H-Ras-GDP; MST, fluorescently-labeled Ras, read-out: binding affinity, Kd): > 100 µM | effect on ERK phosphorylation [3]: did not suppress ERK phosphorylation | cellular uptake, median fluorescence intensity (H358 cells): lower uptake than CHC^Sos-5 | Kd ([4]; fluorescein-derivatized CHD, GDP-bound wild-type H-Ras, fluorescence polarization, read-out: binding affinity, Kd): > 100 µM

CC[C@H](C)[C@H](NC(=O)[C@H](Cc1c[nH]c2ccccc12)NC(C)=O)C(=O)NCC(=O)N[C@@H](CCCNC(=N)N)C(=O)N[C@@H](CC(C)C)C(=O)N[C@@H](CSCc1ccc(COCc2ccc(CSC[C@H](NC(=O)[C@H](CC(C)C)NC(=O)[C@H](CCCNC(=N)N)NC(=O)[C@H](C)NC(=O)[C@H](CC(C)C)NC(=O)[C@H](CCC(=O)O)NC(=O)[C@H](CCCNC(=N)N)NC(=O)[C@H](CCC(=O)O)NC(=O)[C@H](CC(C)C)NC(=O)[C@H](CCC(=O)O)NC(=O)[C@H](CCCNC(=N)N)NC(=O)[C@H](CC(C)C)NC(=O)[C@H](CCCNC(=N)N)NC(=O)[C@H](Cc3c[nH]c4ccccc34)NC(=O)[C@H](C)NC(=O)[C@H](CC(C)C)NC(C)=O)C(N)=O)cc2)cc1)C(=O)N[C@H](C(=O)N[C@@H](CCC(=O)O)C(=O)N[C@H](C(=O)N[C@@H](CCCCNC(=N)N)C(=O)N[C@@H](CCCNC(=N)N)C(=O)N[C@@H](CC(C)C)C(=O)N[C@@H](CCCNC(=N)N)C(=O)N[C@@H](CC(N)=O)C(=O)NCC(=O)N[C@@H](CC(N)=O)C(N)=O)[C@@H](C)CC)[C@@H](C)O [CHC^Sos-5] (HELM PEPTIDE1{[ac].L.A.W.R.L.R.E.L.E.R.E.L.A.R.L.C.[am]}|PEPTIDE2{[ac].W.I.G.R.L.C.T.E.I.[N=C(N)NCCCC[C@H](N[*:1])C(=O)[*:2]].R.L.R.N.G.N.[am]}|CHEM1{[c1cc(C[*:1])ccc1COCc1ccc(C[*:2])cc1]}$PEPTIDE1,CHEM1,17:R3-1:R1|PEPTIDE2,CHEM1,7:R3-1:R2$$$V2.0)
binding affinity [5]: low micromolar affinity range | binding affinity [6]: low micromolar affinity range | binding affinity [7]: low micromolar affinity range | aqueous solubility [8]: improves its aqueous solubility | half-life (in vitro): > 24 h | remaining at 24 h (in vitro): ~60% | Kd (wild-type H-Ras-GDP): 0.3 ± 0.1 µM | cellular uptake (SW780 cells): permeable | Kd [4]: 2 ± 0.3 µM
